Assay results reported in article PMC12031237, “Toxicity Assessment of (4Z)-Lachnophyllum and (4Z,8Z)-Matricaria Lactones: Implications for Environmental Safety of Bioherbicides” (Toxins, 2025).
In brackets after ≈: the same amount, converted by molar mass. Like-named read-outs stand apart in the source and are kept apart here.

How the values were obtained:
[1] = system: D. magna; details: 48 h, cited from earlier work
[2] = system: R. subcapitata; details: cited from earlier work
[3] = system: A. fischeri; details: 30 min, cited from earlier work
[4] = system: R. subcapitata; test: Literature growth inhibition of R. subcapitata by herbicides; type: cell-based, Raphidocelis subcapitata
Description: (§1) Table 3 EC50 values from the literature for the aquatic test species exposed to multiple commonly used herbicides. | column: Hazard Ranking

[5] = system: A. fischeri; test: Literature acute toxicity of herbicides to A. fischeri; type: cell-based, Aliivibrio fischeri
Description: as §1

[6] = system: D. magna; test: Literature acute toxicity of herbicides to D. magna; type: in vivo, Daphnia magna
Description: as §1

[7] = system: C. elegans; test: Nematode survival bioassay in soil, ASTM E2172-01; type: in vivo; details: 24 h exposure, positive control
Method: The nematode bioassay was carried out using the Caenorhabditis elegans wild-type strain N2, Bristol variant, according to the ASTM E2172—01 Standard Method (2014). Culture was maintained on NGM (nematode growth media) plates seeded with Escherichia coli (uracil-deficient OP50 strain) and stored at 20 °C. The tests were conducted using age-synchronized adult nematodes, obtained by lysing gravid nematodes with a bleaching solution (10 g/L NaOH, 10.5 g/L NaOCl), followed by centrifugation and washing with an M9 mineral medium (2.2 mM KH2PO4, 4.2 mM Na2HPO4, 85.6 mM NaCl, and 1 mM MgSO4). The synchronized nematodes were then transferred to NGM agar plates and left to recover overnight.
Soil samples (2.33 g) were hydrated to 35–45% of their dry weight using K-medium in centrifuge tubes. Ten worms were transferred to each tube and exposed to the soil samples for 24 h at 20 °C. […] Treatments were performed in triplicate, with worms kept unfed during the exposure period. Nematodes were extracted by centrifugation (2000 rpm, 2 min) using silica gel (Ludox TM 50, Sigma-Aldrich, St. Louis, MO, USA) with a specific density of 1.13 g/mL. The supernatant was then transferred to 100 mm glass Petri dishes and washed with Keller (K) medium. Extracted individuals were counted under a microscope (40× magnification), with mortality as the measured endpoint. Test validity required a minimum of 80% nematode recovery and 90% survival in the control group.

[8] = system: D. magna; test: Crustacean immobility acute test, ISO 6341; type: in vivo, Daphnia magna
Method: The immobility acute test (48 h) with D. magna was conducted according to ISO 6341 [60]. D. magna was selected from laboratory stock cultures at the Hygiene Laboratory of the Department of Biology of the University of Naples Federico II, placed in ISO medium, and fed daily with the microalgae R. subcapitata. For the test, five neonates (third brood, <24 h old) were exposed in 10 mL of ISO medium to the following corresponding concentrations: 0.22, 0.43, 0.86, 1.73, 3.46, 6.91, 13.83, 27.65, and 55.30 mg L^−^1 and a negative control of 0 mg L^−^1. Each concentration had 4 replicates, and immobility was assessed after 24 and 48 h of exposure.
(§2) Data analysis was conducted using RStudio for Windows (Version 2024.09.1). Dose–response models were applied to estimate the effective concentrations (EC10 and EC50) for the tested endpoints using the “drc” package. For D. magna, the data were modeled with a binomial log-logistic approach, whereas data for R. subcapitata, A. fischeri and L. sativum were fitted to log-logistic models with the upper limit constrained to 100. Furthermore, to ensure assay sensitivity and validity, a positive control exposed to potassium dichromate for the aquatic species and copper chloride for C. elegans was tested under the same experimental conditions.

[9] = system: A. fischeri; test: Bioluminescence (light) inhibition test, ISO 11348-3; details: 30 min exposure; standard error in brackets, n = 3
Method: The bioluminescence inhibition test (30 min) was detected with the A. fischeri (NRRLB-11177) supplied by MicroBioTest, Gent, Belgium, and according to ISO 11348-3 [59]. The bioluminescence was determined by the luminometer Microtox (Model 500 analyzer, New Castle, DE, USA) at 490 nm. To provide the required osmotic pressure for the bacterium, the stock solution was diluted to perform the test in saline water solution (2% sodium chloride, NaCl). The concentrations tested correspond to 0.19, 0.39, 0.78, 1.56, and 3.12 mg L^−^1 and a negative control of 0 mg L^−^1. Toxicity tests were performed in triplicate with a control, and the percentage luminescence inhibition was expressed as the ratio of the decrease in bacterial light production to the remaining light.
as §2

[10] = system: R. subcapitata; test: Algal growth inhibition test, ISO 8692; details: positive control
Method: The algal growth inhibition test (72 h) with R. subcapitata was carried out according to ISO 8692 [58]. The algal density was determined by spectrophotometric analysis (DR5000, Hach Lange GbH, Weinheim, Germany) at 670 nm. The concentrations tested correspond to 0.19, 0.39, 0.78, 1.56, and 3.12 mg L^−^1 and a negative control of 0 mg L^−^1. The growth inhibition was calculated as the difference in growth at the end of the test of the sample and the control group. Toxicity tests were carried out in triplicate.
as §2

[11] = GHS ranking of 72 h EC50 of ref 49
[12] = GHS ranking of 30 min EC50 of ref 49
[13] = GHS ranking of 48 h EC50 of ref 49
[14] = GHS ranking of 96 h EC50 of ref 47

CCNc1nc(Cl)nc(NC(C)C)n1 [Atrazine]
EC50 ([1]; ref 49): 0.05 mg/L (≈ 0.232 µM)
EC50 ([2]; 72 h): 0.02 mg/L (≈ 0.0927 µM)
EC50 ([3]; ref 49): 39.80 mg/L (≈ 185 µM)
Hazard Ranking [4, 11]: **** (Very toxic (≤1 mg L^−1))
Hazard Ranking [5, 12]: ** (harmful: (<10 mg L^−1 ≤ 100 mg L^−1))
Hazard Ranking [6, 13]: **** (Very toxic (≤1 mg L^−1))

O=C(O)CNCP(=O)(O)O [Glyphosate]
EC50 ([1]; average of multiple tests performed, given as isopropylamine salt): 4.30 °° mg L^−1
EC50 ([1]; average of multiple tests performed, rounded up (formulation commercially available)): 7.15 ° mg L^−1
EC50 ([1]; ref 40): 4.20 mg/L (≈ 24.8 µM)
EC50 ([1]; ref 41): 8.90 mg/L (≈ 52.6 µM)
LC50 ([1]; ref 42): 21.34 mg/L (≈ 126 µM)
LC50 ([1]; ref 43): 190.0 mg/L (≈ 1120 µM)
LC50 ([1]; ref 44): 0.012 mg/L (≈ 0.071 µM)
LC50 ([1]; ref 45): 9.34 mg/L (≈ 55.2 µM)
LC50 ([1]; ref 46): 11.68 mg/L (≈ 69.1 µM)
EC50 ([2]; 96 h): 5.55 mg/L (≈ 32.8 µM)
EC50 ([3]; ref 48): 2.93 mg/L (≈ 17.3 µM)
Hazard Ranking [4, 14]: *** (toxic (<1 mg L^−1 ≤ 10 mg L^−1))
Hazard Ranking ([5]; GHS ranking of 30 min EC50 of ref 48): *** (toxic (<1 mg L^−1 ≤ 10 mg L^−1))
Hazard Ranking ([6]; GHS ranking of 48 h EC50 (commercial formulation) of ref 39): *** (toxic (<1 mg L^−1 ≤ 10 mg L^−1))
Hazard Ranking ([6]; GHS ranking of 48 h EC50 (isopropylamine salt) of ref 39): *** (toxic (<1 mg L^−1 ≤ 10 mg L^−1))
Hazard Ranking ([6]; GHS ranking of 48 h EC50 of ref 40): *** (toxic (<1 mg L^−1 ≤ 10 mg L^−1))
Hazard Ranking ([6]; GHS ranking of 48 h EC50 of ref 41): *** (toxic (<1 mg L^−1 ≤ 10 mg L^−1))
Hazard Ranking ([6]; GHS ranking of 48 h LC50 of ref 42): ** (harmful: (<10 mg L^−1 ≤ 100 mg L^−1))
Hazard Ranking ([6]; GHS ranking of 48 h LC50 of ref 43): * (not harmful: (>100 mg L^−1))
Hazard Ranking ([6]; GHS ranking of 48 h LC50 of ref 44): **** (Very toxic (≤1 mg L^−1))
Hazard Ranking ([6]; GHS ranking of 48 h LC50 of ref 45): *** (toxic (<1 mg L^−1 ≤ 10 mg L^−1))
Hazard Ranking ([6]; GHS ranking of 48 h LC50 of ref 46): ** (harmful: (<10 mg L^−1 ≤ 100 mg L^−1))

CCc1cccc(C)c1N(C(=O)CCl)C(C)COC (stereo not shown) [Metolachlor]
EC50 ([1]; ref 49): 23.50 mg/L (≈ 82.8 µM)
EC50 ([2]; 72 h): 0.055 mg/L (≈ 0.194 µM)
EC50 ([2]; 96 h): 5.51 mg/L (≈ 19.4 µM)
EC50 ([3]; ref 49): 17.00 mg/L (≈ 59.9 µM)
EC50 ([3]; ref 50): 265.00 mg/L (≈ 934 µM)
EC50 ([3]; ref 51): 214.85 mg/L (≈ 757 µM)
Hazard Ranking [4, 11]: **** (Very toxic (≤1 mg L^−1))
Hazard Ranking [4, 14]: *** (toxic (<1 mg L^−1 ≤ 10 mg L^−1))
Hazard Ranking [5, 12]: ** (harmful: (<10 mg L^−1 ≤ 100 mg L^−1))
Hazard Ranking ([5]; GHS ranking of 30 min EC50 of ref 50): * (not harmful: (>100 mg L^−1))
Hazard Ranking ([5]; GHS ranking of 30 min EC50 of ref 51): * (not harmful: (>100 mg L^−1))
Hazard Ranking [6, 13]: ** (harmful: (<10 mg L^−1 ≤ 100 mg L^−1))

CCC(=O)Nc1ccc(Cl)c(Cl)c1 [Propanil]
EC50 ([1]; ref 49): 2.00 mg/L (≈ 9.17 µM)
EC50 ([2]; 72 h): 0.05 mg/L (≈ 0.229 µM)
Hazard Ranking [4, 11]: **** (Very toxic (≤1 mg L^−1))
Hazard Ranking [6, 13]: *** (toxic (<1 mg L^−1 ≤ 10 mg L^−1))

[Cl][Cu][Cl] [copper chloride, reference compound]
EC50 [7]: 42.37 mg/L

[K+].[K+].[O]=[Cr](=[O])([O-])[O][Cr](=[O])(=[O])[O-] [potassium dichromate, reference compound]
EC50 (immobilization) ([8]; 24 h exposure): 10.501 mg/L
EC50 (immobilization) ([8]; 48 h exposure): 5.66 mg/L
EC50 (light inhibition) [9]: 3.730 mg/L
EC50 (growth inhibition) [10]: 0.987 mg/L
